System: MV-4-11 cells
Assay: Gene expression microarray analysis (Affymetrix PrimeView) and GSEA
Assay type: cell-based, human
Set-up: RFU PODN (11730768_x_at) / Fold change /veh PODN (11730768_x_at) / RFU LINC00158 (11744669_a_at) / Fold change /veh LINC00158 (11744669_a_at) / RFU DUSP10 (11751237_a_at) / Fold change /veh DUSP10 (11751237_a_at) / RFU ID3 (11757404_x_at) / Fold change /veh ID3 (11757404_x_at) / RFU PLEKHG5 (11737974_s_at) / Fold change /veh PLEKHG5 (11737974_s_at) / RFU LRRC4B (11730491_at) / Fold change /veh LRRC4B (11730491_at) / RFU GIMAP4 (11747438_a_at) / Fold change /veh GIMAP4 (11747438_a_at) / RFU KRT8 (11758183_x_at) / Fold change /veh KRT8 (11758183_x_at) / RFU CNN1 (11734310_a_at) / Fold change /veh CNN1 (11734310_a_at) / RFU VPS37D (11726825_at) / Fold change /veh VPS37D (11726825_at) / RFU C10orf10 (11716522_x_at) / Fold change /veh C10orf10 (11716522_x_at) / RFU KIR2DL2 /// KIR2DL4 /// KIR2DL5A /// KIR2DL5B /// KIR2DS1 /// KIR2DS2 /// KIR2DS3 /// KIR2DS4 /// KIR3DL3 /// KIR3DL3 /// KIR3DS1 (11738374_at) / Fold change /veh KIR2DL2 /// KIR2DL4 /// KIR2DL5A /// KIR2DL5B /// KIR2DS1 /// KIR2DS2 /// KIR2DS3 /// KIR2DS4 /// KIR3DL3 /// KIR3DL3 /// KIR3DS1 (11738374_at) / RFU C1QL1 (11718748_at) / Fold change /veh C1QL1 (11718748_at) / RFU TMPRSS4 (11747572_a_at) / Fold change /veh TMPRSS4 (11747572_a_at) / RFU HAMP (11756126_x_at) / Fold change /veh HAMP (11756126_x_at) / RFU RNFT2 (11725882_a_at) / Fold change /veh RNFT2 (11725882_a_at) / RFU NR4A2 (11747474_a_at) / Fold change /veh NR4A2 (11747474_a_at) / RFU ABCC12 (11746883_a_at) / Fold change /veh ABCC12 (11746883_a_at) / RFU TMEM136 (11760407_x_at) / Fold change /veh TMEM136 (11760407_x_at) / RFU CLDN22 /// WWC2 (11732394_at) / Fold change /veh CLDN22 /// WWC2 (11732394_at) / RFU HLA-DPB1 (11760878_x_at) / Fold change /veh HLA-DPB1 (11760878_x_at) / RFU SPINT1 (11716480_a_at) / Fold change /veh SPINT1 (11716480_a_at) / RFU GAP43 (11754022_s_at) / Fold change /veh GAP43 (11754022_s_at) / RFU A4GNT (11735810_at) / Fold change /veh A4GNT (11735810_at) / RFU PRB3 (11715151_x_at) / Fold change /veh PRB3 (11715151_x_at) / RFU TUBB4B (11761932_at) / Fold change /veh TUBB4B (11761932_at) / RFU CAPN14 (11732068_a_at) / Fold change /veh CAPN14 (11732068_a_at) / RFU TMCC2 (11721928_a_at) / Fold change /veh TMCC2 (11721928_a_at) / RFU IRGQ (11745062_a_at) / Fold change /veh IRGQ (11745062_a_at) / RFU FAM174B (11720279_a_at) / Fold change /veh FAM174B (11720279_a_at) / RFU TMPRSS4 (11748680_a_at) / Fold change /veh TMPRSS4 (11748680_a_at) / RFU FAM212B (11763350_a_at) / Fold change /veh FAM212B (11763350_a_at) / RFU PLEKHG5 (11743358_a_at) / Fold change /veh PLEKHG5 (11743358_a_at) / RFU ZSCAN30 (11745921_a_at) / Fold change /veh ZSCAN30 (11745921_a_at) / RFU CMKLR1 (11741424_a_at) / Fold change /veh CMKLR1 (11741424_a_at) / RFU LOC101060620 /// MAPK8IP1 (11723275_at) / Fold change /veh LOC101060620 /// MAPK8IP1 (11723275_at) / RFU SPTSSB (11747773_x_at) / Fold change /veh SPTSSB (11747773_x_at) / RFU PRSS12 (11739890_at) / Fold change /veh PRSS12 (11739890_at) / RFU BIN1 (11741810_x_at) / Fold change /veh BIN1 (11741810_x_at) / RFU WNT11 (11732464_a_at) / Fold change /veh WNT11 (11732464_a_at) / RFU C10orf10 (11716521_a_at) / Fold change /veh C10orf10 (11716521_a_at) / RFU C5orf56 (11738089_at) / Fold change /veh C5orf56 (11738089_at) / RFU CYB561 (11721691_x_at) / Fold change /veh CYB561 (11721691_x_at) / RFU ANKRD19P (11752326_a_at) / Fold change /veh ANKRD19P (11752326_a_at) / RFU OR2T12 /// OR2T33 /// OR2T8 (11738714_s_at) / Fold change /veh OR2T12 /// OR2T33 /// OR2T8 (11738714_s_at) / RFU VCAN (11748164_a_at) / Fold change /veh VCAN (11748164_a_at) / RFU JSRP1 (11732532_at) / Fold change /veh JSRP1 (11732532_at) / RFU KRTAP10-11 (11738290_x_at) / Fold change /veh KRTAP10-11 (11738290_x_at) / RFU MYO3A (11730013_a_at) / Fold change /veh MYO3A (11730013_a_at) / RFU EBF3 (11725865_a_at) / Fold change /veh EBF3 (11725865_a_at) / RFU CAMK2N1 (11719241_x_at) / Fold change /veh CAMK2N1 (11719241_x_at) / RFU C5orf56 (11738088_a_at) / Fold change /veh C5orf56 (11738088_a_at) / RFU OLFML3 (11715873_a_at) / Fold change /veh OLFML3 (11715873_a_at) / RFU LOC100653217 /// NTM (11731650_a_at) / Fold change /veh LOC100653217 /// NTM (11731650_a_at) / RFU MAPK11 (11762145_a_at) / Fold change /veh MAPK11 (11762145_a_at) / RFU FIZ1 (11724087_x_at) / Fold change /veh FIZ1 (11724087_x_at) / RFU OASL (11726364_x_at) / Fold change /veh OASL (11726364_x_at) / RFU SOX15 (11748057_x_at) / Fold change /veh SOX15 (11748057_x_at) / RFU CD79A (11719716_a_at) / Fold change /veh CD79A (11719716_a_at) / RFU HIST1H1D (11736915_at) / Fold change /veh HIST1H1D (11736915_at) / RFU CASKIN2 (11723855_a_at) / Fold change /veh CASKIN2 (11723855_a_at) / RFU LOC730098 (11760151_x_at) / Fold change /veh LOC730098 (11760151_x_at) / RFU OR4N2 (11742367_at) / Fold change /veh OR4N2 (11742367_at) / RFU PRRT2 (11749266_a_at) / Fold change /veh PRRT2 (11749266_a_at) / RFU SNX32 (11753110_a_at) / Fold change /veh SNX32 (11753110_a_at) / RFU CDHR5 (11726645_a_at) / Fold change /veh CDHR5 (11726645_a_at) / RFU RCAN1 (11760418_a_at) / Fold change /veh RCAN1 (11760418_a_at) / RFU FAM167A (11723789_a_at) / Fold change /veh FAM167A (11723789_a_at) / RFU FAM26E (11764081_at) / Fold change /veh FAM26E (11764081_at) / RFU ISYNA1 (11749810_s_at) / Fold change /veh ISYNA1 (11749810_s_at) / RFU ACY1 (11761880_at) / Fold change /veh ACY1 (11761880_at) / RFU 11764098_at / Fold change /veh 11764098_at / RFU SAMD14 (11745864_x_at) / Fold change /veh SAMD14 (11745864_x_at) / RFU NPB (11741838_a_at) / Fold change /veh NPB (11741838_a_at) / RFU TMPRSS6 (11731388_a_at) / Fold change /veh TMPRSS6 (11731388_a_at) / RFU KRTAP10-2 (11738614_at) / Fold change /veh KRTAP10-2 (11738614_at) / RFU ARHGAP8 /// PRR5-ARHGAP8 (11727945_x_at) / Fold change /veh ARHGAP8 /// PRR5-ARHGAP8 (11727945_x_at) / RFU KRTAP5-7 /// NADSYN1 (11734609_at) / Fold change /veh KRTAP5-7 /// NADSYN1 (11734609_at) / RFU RASL12 (11751679_a_at) / Fold change /veh RASL12 (11751679_a_at) / RFU CDKN2B (11736163_a_at) / Fold change /veh CDKN2B (11736163_a_at) / RFU PRF1 (11729649_at) / Fold change /veh PRF1 (11729649_at) / RFU, ZNF638 /// ZNF638-IT1 / Fold change vs veh, ZNF638 /// ZNF638-IT1 / RFU, PANK3 / Fold change vs veh, PANK3 / RFU, SH3YL1 / Fold change vs veh, SH3YL1 / RFU, ZEB2 / Fold change vs veh, ZEB2 / RFU, NRIP1 / Fold change vs veh, NRIP1 / RFU, PTTG1IP / Fold change vs veh, PTTG1IP / RFU, CAPN2 / Fold change vs veh, CAPN2 / RFU, MED14 / Fold change vs veh, MED14 / RFU, SNORA58 / Fold change vs veh, SNORA58 / RFU, C1orf63 / Fold change vs veh, C1orf63 / RFU, LRRFIP1 / Fold change vs veh, LRRFIP1 / RFU, NDUFAF7 / Fold change vs veh, NDUFAF7 / RFU, SLC12A2 / Fold change vs veh, SLC12A2 / RFU, IBTK / Fold change vs veh, IBTK / RFU, ESF1 / Fold change vs veh, ESF1 / Fold change vs veh, TMEM50B / RFU, TAOK1 / Fold change vs veh, TAOK1 / RFU, ACBD3 / Fold change vs veh, ACBD3 / RFU, TMA16 / Fold change vs veh, TMA16 / RFU, RWDD3 / Fold change vs veh, RWDD3 / RFU, BCAT1 / Fold change vs veh, BCAT1 / RFU, EDEM3 / Fold change vs veh, EDEM3 / RFU, TMEM33 / Fold change vs veh, TMEM33 / RFU, WDR75 / Fold change vs veh, WDR75 / RFU, AHCTF1 / Fold change vs veh, AHCTF1 / RFU, TFRC / Fold change vs veh, TFRC / RFU, ZDHHC17 / Fold change vs veh, ZDHHC17 / RFU, NOM1 / Fold change vs veh, NOM1 / RFU, ARL8B / Fold change vs veh, ARL8B / RFU, ZBTB11 / Fold change vs veh, ZBTB11 / RFU, TAMM41 / Fold change vs veh, TAMM41 / RFU, KIAA1704 /// LOC100996395 / Fold change vs veh, KIAA1704 /// LOC100996395 / RFU, ING1 / Fold change vs veh, ING1 / RFU, TRMT61B / Fold change vs veh, TRMT61B / RFU, FUBP3 / Fold change vs veh, FUBP3 / RFU, TP53 / Fold change vs veh, TP53 / RFU, TNKS2 / Fold change vs veh, TNKS2 / RFU, ZFP14 / Fold change vs veh, ZFP14 / RFU, ACTR2 / Fold change vs veh, ACTR2 / RFU, PPP3R1 / Fold change vs veh, PPP3R1 / RFU, PIK3R1 / Fold change vs veh, PIK3R1 / RFU, HNRNPA1 / Fold change vs veh, HNRNPA1 / RFU, RNF170 / Fold change vs veh, RNF170 / RFU, ZNF28 / Fold change vs veh, ZNF28 / RFU, RNGTT / Fold change vs veh, RNGTT / RFU, OGT / Fold change vs veh, OGT / RFU, BRD1 / Fold change vs veh, BRD1 / RFU, MARS / Fold change vs veh, MARS / RFU, ZNF655 / Fold change vs veh, ZNF655 / RFU, FAHD1 / Fold change vs veh, FAHD1 / RFU, BDP1 / Fold change vs veh, BDP1 / RFU, LRRCC1 / Fold change vs veh, LRRCC1 / RFU, ARID1A / Fold change vs veh, ARID1A / RFU, ZNF146 / Fold change vs veh, ZNF146 / RFU, ZNF330 / Fold change vs veh, ZNF330 / RFU, GPN3 / Fold change vs veh, GPN3 / RFU, C9orf123 / Fold change vs veh, C9orf123 / RFU, N4BP2L2 / Fold change vs veh, N4BP2L2 / RFU, ARFIP1 / Fold change vs veh, ARFIP1 / RFU, FAM179B / Fold change vs veh, FAM179B / RFU, BCL10 / Fold change vs veh, BCL10 / RFU, UHRF1BP1L / Fold change vs veh, UHRF1BP1L / RFU, BET1 / Fold change vs veh, BET1 / RFU, CNOT2 / Fold change vs veh, CNOT2 / RFU, ZNF268 / Fold change vs veh, ZNF268 / Fold change vs veh, ZNF507 / RFU, DGCR2 / Fold change vs veh, DGCR2 / RFU, WDSUB1 / Fold change vs veh, WDSUB1 / Fold change vs veh, HSP90B1 /// MIR3652 / RFU, ADSS / Fold change vs veh, ADSS / RFU, GK / Fold change vs veh, GK / RFU, ZNF148 / Fold change vs veh, ZNF148 / RFU, TAF9 / Fold change vs veh, TAF9 / RFU, SLC1A5 / Fold change vs veh, SLC1A5 / RFU, SLMO2 / Fold change vs veh, SLMO2 / RFU, ABCC4 / Fold change vs veh, ABCC4 / RFU, LOC101060439 /// RAP1B / Fold change vs veh, LOC101060439 /// RAP1B / RFU, RFX7 / Fold change vs veh, RFX7 / RFU, GTPBP10 / Fold change vs veh, GTPBP10 / RFU, CNEP1R1 / Fold change vs veh, CNEP1R1 / RFU, BIVM-ERCC5 /// ERCC5 / Fold change vs veh, BIVM-ERCC5 /// ERCC5 / RFU, ILF3 / Fold change vs veh, ILF3 / RFU 11762660_at / Fold change /veh 11762660_at / RFU VCAN (11757783_s_at) / Fold change /veh VCAN (11757783_s_at) / RFU DDX43 (11728927_at) / Fold change /veh DDX43 (11728927_at) / RFU KRT8 (11758188_x_at) / Fold change /veh KRT8 (11758188_x_at) / RFU NKD1 (11759106_at) / Fold change /veh NKD1 (11759106_at) / RFU SRD5A1 (11742802_a_at) / Fold change /veh SRD5A1 (11742802_a_at) / RFU TPSAB1 /// TPSB2 (11721975_s_at) / Fold change /veh TPSAB1 /// TPSB2 (11721975_s_at) / RFU GSTM3 (11746129_a_at) / Fold change /veh GSTM3 (11746129_a_at) / RFU IL23R (11737362_x_at) / Fold change /veh IL23R (11737362_x_at) / RFU TMEM51 (11727254_a_at) / Fold change /veh TMEM51 (11727254_a_at) / RFU PIWIL2 (11732686_x_at) / Fold change /veh PIWIL2 (11732686_x_at) / RFU ORM1 (11744905_x_at) / Fold change /veh ORM1 (11744905_x_at) / RFU CCDC152 (11743942_at) / Fold change /veh CCDC152 (11743942_at) / RFU ECM1 (11717891_a_at) / Fold change /veh ECM1 (11717891_a_at) / RFU IL23R (11748794_a_at) / Fold change /veh IL23R (11748794_a_at) / RFU TNFAIP8L3 (11732012_x_at) / Fold change /veh TNFAIP8L3 (11732012_x_at) / RFU MBOAT4 (11741988_at) / Fold change /veh MBOAT4 (11741988_at) / RFU 11764193_at / Fold change /veh 11764193_at / RFU TMEM53 (11763286_at) / Fold change /veh TMEM53 (11763286_at) / RFU MAGEB2 (11727129_at) / Fold change /veh MAGEB2 (11727129_at) / RFU TMEM200A (11744735_a_at) / Fold change /veh TMEM200A (11744735_a_at) / RFU CCDC152 (11751479_a_at) / Fold change /veh CCDC152 (11751479_a_at) / RFU FAM211A (11726209_a_at) / Fold change /veh FAM211A (11726209_a_at) / RFU RGS16 (11746705_a_at) / Fold change /veh RGS16 (11746705_a_at) / RFU VCAN (11755009_s_at) / Fold change /veh VCAN (11755009_s_at) / RFU RHOB (11743442_s_at) / Fold change /veh RHOB (11743442_s_at) / RFU RGS16 (11720943_a_at) / Fold change /veh RGS16 (11720943_a_at) / RFU RGS16 (11720944_at) / Fold change /veh RGS16 (11720944_at) / RFU, VPS4B / Fold change vs veh, VPS4B / RFU, CREB1 / Fold change vs veh, CREB1 / RFU, DNAJC13 / Fold change vs veh, DNAJC13 / RFU, GNAQ / Fold change vs veh, GNAQ / RFU, CDK5R1 / Fold change vs veh, CDK5R1 / RFU, ZRANB3 / Fold change vs veh, ZRANB3 / RFU, CUL4A / Fold change vs veh, CUL4A / RFU, CCNY / Fold change vs veh, CCNY / RFU, UFL1 / Fold change vs veh, UFL1 / RFU, COG3 / Fold change vs veh, COG3 / RFU, DIAPH2 / Fold change vs veh, DIAPH2 / RFU, SKA2 / Fold change vs veh, SKA2 / RFU, AFF3 / Fold change vs veh, AFF3 / RFU, LMF1 / Fold change vs veh, LMF1 / RFU, IPO11 / Fold change vs veh, IPO11 / RFU, DFFB / Fold change vs veh, DFFB / RFU, FOXP1 / Fold change vs veh, FOXP1 / RFU, CARD8 / Fold change vs veh, CARD8 / RFU, STRN3 / Fold change vs veh, STRN3 / RFU, ADK / Fold change vs veh, ADK / RFU, RASSF2 / Fold change vs veh, RASSF2 / RFU, WIPF1 / Fold change vs veh, WIPF1 / RFU, LARP1B / Fold change vs veh, LARP1B / RFU, RASA1 / Fold change vs veh, RASA1 / RFU, RB1 / Fold change vs veh, RB1 / RFU, PPFIA1 / Fold change vs veh, PPFIA1 / RFU, MAT2A / Fold change vs veh, MAT2A / RFU, CCT5 / Fold change vs veh, CCT5 / RFU, WDR92 / Fold change vs veh, WDR92 / RFU, CUX1 / Fold change vs veh, CUX1 / RFU, TTC7A / Fold change vs veh, TTC7A / RFU, TMEM135 / Fold change vs veh, TMEM135 / RFU, DEPTOR / Fold change vs veh, DEPTOR / RFU, CPM / Fold change vs veh, CPM / RFU, DNAJB6 / Fold change vs veh, DNAJB6 / RFU, CACNA2D3 / Fold change vs veh, CACNA2D3 / RFU, DTX4 / Fold change vs veh, DTX4 / RFU, TFCP2 / Fold change vs veh, TFCP2 / RFU, GMCL1 /// GMCL1P1 / Fold change vs veh, GMCL1 /// GMCL1P1 / RFU, AEBP2 / Fold change vs veh, AEBP2 / RFU, SNHG1 /// SNORD22 /// SNORD25 /// SNORD26 /// SNORD27 /// SNORD28 /// SNORD29 /// SNORD31 / Fold change vs veh, SNHG1 /// SNORD22 /// SNORD25 /// SNORD26 /// SNORD27 /// SNORD28 /// SNORD29 /// SNORD31 / Fold change (Aza/veh), C12orf56 (ProbeSet 11735607_a_at) / Fold change (ACY-1035/veh), C12orf56 (ProbeSet 11735607_a_at) / Fold change (Aza/veh), FGFR1OP (ProbeSet 11751329_s_at) / Fold change (ACY-1035/veh), FGFR1OP (ProbeSet 11751329_s_at) / Fold change (Aza/veh), VPS36 (ProbeSet 11739960_a_at) / Fold change (ACY-1035/veh), VPS36 (ProbeSet 11739960_a_at) / RFU SYPL1 (11715823_x_at) / Fold change /veh SYPL1 (11715823_x_at) / RFU IGFBP7 (11715501_s_at) / Fold change /veh IGFBP7 (11715501_s_at) / RFU REEP3 (11722064_at) / Fold change /veh REEP3 (11722064_at) / RFU IGLL1 (11728026_x_at) / Fold change /veh IGLL1 (11728026_x_at): dose or concentration left out as unconfirmed
Conditions: ProbeSet 11719185_x_at; LIST B

Nc1ncn([C@@H]2O[C@H](CO)[C@@H](O)[C@H]2O)c(=O)n1 [azacitidine]
RFU, N4BP2L2: 91.08 RFU

From PMC5218480 (PLoS ONE, 2017)
